BindingDB's records for patent US10538528 (Taiho Pahrmaceutical Co., Ltd., 2020)

Target: RAC-alpha serine/threonine-protein kinase (Homo sapiens, UniProt P31749)
Experiment: Kinase Activity Assay
Protocol: Akt1 was prepared and assays of inhibitory activity of the compound according to the present invention against Akt1 kinase activity in vitro were conducted according to the method described in Biochem. J., vol. 385, pp. 399-408, 2005 and Cancer Res., vol. 68, pp. 2366-2374, 2008. In the preparation of Akt1 protein, human Akt1 tagged with the middle T antigen was expressed in an insect cell Sf9, Akt1 was prepared through affinity purification and activation by PDK1, and the resultant was stored at −80° C. until the inhibition assays of the compounds. In the inhibition assay of the compounds, Akt1 and the compound according to the present invention were subjected to pre-incubation at 25° C. for 120 minutes in a reaction buffer (15 mM Tris-HCl, pH 7.5, 0.01% Tween-20, 2 mM DTT). Subsequently, biotinylated Crosstide (biotin-[…], Millipore), MgCl2, and ATP were added as substrates at the final concentration of 500 nM, 10 mM, and 150 μM, respectively, and the reaction was allowed to proceed at 25° C. for 60 minutes. […] In the end, the fluorescence levels irradiated with an excitation light of 337 nm were assayed at two different wavelength levels (i.e., 620 nm and 665 nm) using PI-HERAstar FS (BMG LABTECH) or PHERAstar (BMG LABTECH).

RAC-alpha serine/threonine-protein kinase, sequence (P31749 whole entry): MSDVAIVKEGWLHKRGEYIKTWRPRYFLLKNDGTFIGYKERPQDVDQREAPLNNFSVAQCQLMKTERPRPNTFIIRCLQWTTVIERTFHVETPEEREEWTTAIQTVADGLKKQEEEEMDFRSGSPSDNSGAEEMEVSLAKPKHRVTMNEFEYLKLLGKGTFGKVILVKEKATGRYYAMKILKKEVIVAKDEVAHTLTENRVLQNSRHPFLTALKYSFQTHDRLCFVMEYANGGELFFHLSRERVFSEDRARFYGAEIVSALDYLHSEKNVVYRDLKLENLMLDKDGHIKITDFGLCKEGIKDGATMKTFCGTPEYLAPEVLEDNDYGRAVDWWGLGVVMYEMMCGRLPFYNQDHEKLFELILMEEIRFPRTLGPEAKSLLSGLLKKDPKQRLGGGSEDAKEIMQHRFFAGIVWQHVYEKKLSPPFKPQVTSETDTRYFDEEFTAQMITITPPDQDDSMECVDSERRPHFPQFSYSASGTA

- IC50: 52.2 nM
SMILES: CN(C)CCn1cc(-c2ccc(F)c(C(F)(F)F)c2)nc1C1CCN(c2ncnc3c2C(C)(C)C(=O)N3)CC1 [US10538528, Compound A]
